In patent US6420558B1, “Aminopiperidine derivates as integrin αvβ3 antagonists” (Meiji Seika Kaisha, Ltd., priority 1998, dated 2002):

How the values were obtained:
[1] = Oral absorption in rats; type: in vivo; conditions: data not shown
From the text: Therefore, any of the compounds, wherein R^12 represents an alkyl group or a hydrogen atom, can be used in the treatment of the above diseases.

[2] = tested on: human vascular smooth muscle cells adhering to immobilized human vitronectin; assay: Inhibitory activity against adhesion of human vascular smooth muscle cells to vitronectin; type: cell-based; conditions: 1.5 h; human vitronectin-coated plate, 90 min
Procedure: Inhibitory Activity Against Adhesion of Human Vascular Smooth Muscle Cells to Vitronectin
The adhesion of human vascular smooth muscle cells =+to immobilized human vitronectin was measured in accordance with the method of Liaw et al. (Liaw L, Almeida M, Hart C E, Schwartz S M, and Giachelli C M, Circulation Research, 74 (2), 214-224 (1994)).
A Dulbecco's phosphate buffer (Dulbecco's PBS(−), Nissui Pharmaceutical Co., Ltd.) solution of human plasma-derived vitronectin (CALBIOCHEM) adjusted to a concentration of 4 μg/ml was first added to wells (50 μl/well) of a microplate (Maxisorp, Nunc), and a reaction for immobilization was allowed to proceed at 4° C. overnight. After washing twice with 150 μl of Dulbecco's phosphate buffer, a Dulbecco's phosphate buffer containing 10 mg/ml of bovine serum albumin (SIGMA) was added, followed by blocking at 37° C. for one hr. The assay plate was washed twice with 150 μl of Dulbecco's phosphate buffer.
Separately, human vascular smooth muscle cells cultivated at 37° C. under 5% carbon dioxide in a medium for vascular smooth muscle cells (Clonetics) were separated using a Dulbecco's phosphate buffer containing trypsin-EDTA (GIBCO BRL), washed with Dulbecco's phosphate buffer, and then suspended in a Dulbecco's modified Eagle's basal medium (Nissui Pharmaceutical Co., Ltd.) containing 0.1% bovine serum albumin to a concentration of 5×10^5/ml.
Next, 50 μl of a Dulbecco's modified Eagle's basal medium containing 10 mg/ml of bovine serum albumin with a medicament added thereto was added to the wells of the human vitronectin-coated assay microplate, followed by pre-cultivation under 5% carbon dioxide at 37° C. for 10 min. Thereafter, 50 μl of the medium with human vascular smooth muscle cells suspended therein was added thereto, and the plate was thoroughly stirred. A reaction was allowed to proceed under 5% carbon dioxide at 37° C. for 90 min. The reaction solution containing non-adherent cells were then removed, followed by washing three times with Dulbecco's phosphate buffer. For the adhered cells, 100 μl of a Dulbecco's phosphate buffer containing 4% paraformaldehyde (Wako Pure Chemical Industries, Ltd.) was added, and immobilization was allowed to proceed at room temperature for 10 min. Next, 100 μl of a Dulbecco's phosphate buffer containing 0.5% Toluidine Blue (Croma) and 4% paraformaldehyde was added, and staining was allowed to proceed at room temperature for 5 min, followed by thorough washing with distilled water. The inside of the wells was then air-dried, and a 1% aqueous sodium dodecylsulfate solution was then added to perform cytolysis. The absorbance of the microplate thus obtained was measured at 595 nm. […] The inhibition was calculated by the following equation. IC50 was determined from a primary regression line of the logarithm of each concentration of the test compound and the logarithm of (100−inhibition)/inhibition. [formula]

[3] = molecular target: GP IIb/IIIa (Homo sapiens, UniProt P05106+P08514); assay: GP IIb/IIIa antagonistic activity (method of Pharmacological Test 2 in WO 94/21599); type: binding
Procedure: (§1) GP IIb/IIIa Antagonistic Activity and Human Platelet Aggregation Inhibitory Activity
GP IIb/IIIa antagonistic activity was measured for the compounds according to the present invention. The measurement of the GP IIb/IIIa antagonistic activity was carried out according to the method described in Pharmacological Test 2 in WO 94/21599.

[4] = tested on: human platelet aggregation; assay: Human platelet aggregation inhibitory activity (method of Pharmacological Test 1 in WO 94/21599); type: cell-based; conditions: human platelets, read-out: inhibition of human platelet aggregation, IC5. value
Procedure: as §1
Human platelet aggregation inhibitory activity was measured for the compounds according to the present invention. The measurement of the human platelet aggregation activity was carried out according to the method described in Pharmacological Test 1 in WO 94/21599.

[5] = molecular target: T1, integrin αvβ3 (vitronectin receptor purified from the human placenta) (Homo sapiens, UniProt P05106+P06756); assay: αvβ3 binding assay (vitronectin-vitronectin receptor binding assay); conditions: vitronectin binding to human placenta vitronectin receptor; read-out: integrin αvβ3 antagonistic activity, IC50 value
T1 construct: a vitronectin receptor (protein content: 118 μg/ml) purified from the human placenta; from tissue; host or cells: human placenta
Procedure: Integrin αvβ3 antagonistic activity was measured for the compounds according to the present invention in a vitronectin-vitronectin receptor binding assay system in accordance with the method of Kouns et al. (W. C. Kouns, D. Kirchhofer, P. Hadvary, A. Edenhofer, T. Weller, G. Pfenninger, H. R. Baumgartner, L. K. Jennings and B. Steiner, Blood, 80, 2539-2547 (1992)).
Specifically, a vitronectin receptor (protein content: 118 μg/ml) purified from the human placenta in accordance with the method of Pytela et al. (R. Pytela, M. D. Pierschbacher, S. Argraves, S. Suzuki, and E. Ruoslahti, Method in Enzymology, 144, 475-489 (1987)) was diluted 50 times with TBS (20 mM Tris-HCl, 150 mM NaCl, 1 mM CaCl2, 1 mM MgCl2, pH 7.4), and distributed and coated on wells (50 μl/well) of a plate (Maxisorp, Nunc, 96 well Immuno Plate). The plate was then allowed to stand at 4° C. for 1 day, washed twice with TBS (200 μl/well), and then subjected to blocking with TBS (150 μl/well) containing 1% bovine serum albumin (SIGMA) at 4° C. overnight. After washing twice with TBS (200 μl/well), 50 μl of vitronectin (CALBIOCHEM) adjusted to 0.2 μg/ml by the addition of TBS (TBS-Tween) containing 0.01% Tween-20 was mixed with 50 μl of each test compound adjusted to each concentration in wells, and a reaction was allowed to proceed at room temperature for 4 hr. After the completion of the reaction, the wells were washed five times with TBS-Tween. A solution prepared by diluting anti-vitronectin rabbit antiserum (CHEMICON) 500 times with TBS-Tween was added as a primary antibody in an amount of 50 μl/well, and a reaction was allowed to proceed at room temperature for 1.5 hr. After washing five times with 200 μl/well of TBS-Tween, a peroxidase (POD)-labeled anti-rabbit IgG antibody solution (CAPPEL) diluted 500 times with TBS-Tween was added as a secondary antibody in an amount of 50 μl/well, and a reaction was allowed to proceed at room temperature for 1.5 hr. After washing five times with TBS-Tween (200 μl/well), ABTS (2,2′-azino-bis(3-ethylbenzthiazoline-6-sulfonic acid), SIGMA) was adjusted to 1 mg/ml by the addition of a ten-fold diluted POD-buffer (ZYMED), and added in an amount of 50 μl/well, and a reaction was allowed to proceed for 5 to 10 min. A 0.1 M citric acid buffer (pH 4.3) containing 0.05% NaN3 was added in an amount of 50 μl/well to stop the reaction, followed by the measurement of the absorbance at 415 nm with a microplate reader (MTP 32, Corona Electric) (reference: 675 nm). The total binding was defined as the absorbance after a reaction using 50 μl of TBS-Tween instead of the test compound, and the non-specific binding (100% inhibition) was defined as the absorbance after a reaction using 50 μl of TBS-Tween containing 2×10^−3 M RGDS. The inhibition was calculated by the following equation: [formula]
IC50 was determined from a primary regression line of the logarithm of each concentration of the test compound and the logarithm of (100−inhibition)/inhibition.

Sequence of GP IIb/IIIa (P08514 32-887 limits assumed): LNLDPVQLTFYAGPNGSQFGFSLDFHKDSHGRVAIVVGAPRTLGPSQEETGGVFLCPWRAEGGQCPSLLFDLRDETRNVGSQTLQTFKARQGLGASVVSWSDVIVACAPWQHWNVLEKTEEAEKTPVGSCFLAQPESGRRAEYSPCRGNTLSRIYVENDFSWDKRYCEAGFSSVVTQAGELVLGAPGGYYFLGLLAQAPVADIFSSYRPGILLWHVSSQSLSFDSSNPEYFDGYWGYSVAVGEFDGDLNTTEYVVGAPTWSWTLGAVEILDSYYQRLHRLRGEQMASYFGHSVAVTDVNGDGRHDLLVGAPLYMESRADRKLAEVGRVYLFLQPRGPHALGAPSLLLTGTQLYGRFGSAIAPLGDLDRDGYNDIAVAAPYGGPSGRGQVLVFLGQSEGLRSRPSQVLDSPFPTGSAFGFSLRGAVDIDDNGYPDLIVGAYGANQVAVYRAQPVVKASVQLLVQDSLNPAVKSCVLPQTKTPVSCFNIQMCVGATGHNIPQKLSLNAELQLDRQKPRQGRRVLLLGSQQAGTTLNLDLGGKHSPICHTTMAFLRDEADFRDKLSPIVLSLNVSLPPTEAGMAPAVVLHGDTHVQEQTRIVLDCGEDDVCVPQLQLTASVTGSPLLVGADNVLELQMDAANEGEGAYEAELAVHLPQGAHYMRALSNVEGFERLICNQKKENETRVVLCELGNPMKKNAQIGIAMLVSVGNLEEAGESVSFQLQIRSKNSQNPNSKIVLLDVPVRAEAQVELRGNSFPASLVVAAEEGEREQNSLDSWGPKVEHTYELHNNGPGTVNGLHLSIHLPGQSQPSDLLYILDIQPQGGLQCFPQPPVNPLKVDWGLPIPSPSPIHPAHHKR
Sequence of GP IIb/IIIa (P08514 891-1039 limits assumed): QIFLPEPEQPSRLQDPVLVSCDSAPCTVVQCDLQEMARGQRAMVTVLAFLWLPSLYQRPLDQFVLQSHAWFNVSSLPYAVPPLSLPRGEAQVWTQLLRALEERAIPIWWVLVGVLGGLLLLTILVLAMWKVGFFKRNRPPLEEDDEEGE
Sequence of GP IIb/IIIa (P05106 27-788): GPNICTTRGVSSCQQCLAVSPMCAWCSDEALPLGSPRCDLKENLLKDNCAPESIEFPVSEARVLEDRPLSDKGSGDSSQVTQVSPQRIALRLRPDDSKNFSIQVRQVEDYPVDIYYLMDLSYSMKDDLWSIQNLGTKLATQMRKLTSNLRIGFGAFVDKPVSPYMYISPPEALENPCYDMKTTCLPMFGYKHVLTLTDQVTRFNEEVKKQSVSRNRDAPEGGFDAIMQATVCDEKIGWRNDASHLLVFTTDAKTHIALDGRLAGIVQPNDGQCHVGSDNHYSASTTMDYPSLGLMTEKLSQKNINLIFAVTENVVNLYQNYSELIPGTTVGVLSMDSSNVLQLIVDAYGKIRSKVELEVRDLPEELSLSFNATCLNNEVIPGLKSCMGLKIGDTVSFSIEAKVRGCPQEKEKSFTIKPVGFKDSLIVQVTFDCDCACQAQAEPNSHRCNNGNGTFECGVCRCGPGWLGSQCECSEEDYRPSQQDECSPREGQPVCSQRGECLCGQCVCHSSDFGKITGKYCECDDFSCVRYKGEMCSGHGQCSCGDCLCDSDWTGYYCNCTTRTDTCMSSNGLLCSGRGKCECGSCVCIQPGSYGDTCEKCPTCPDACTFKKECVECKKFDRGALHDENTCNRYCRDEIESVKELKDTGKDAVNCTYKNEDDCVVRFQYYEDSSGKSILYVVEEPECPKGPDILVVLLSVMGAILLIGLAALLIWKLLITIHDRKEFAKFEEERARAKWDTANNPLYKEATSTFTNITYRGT
T1 sequence (P06756 31-889 limits assumed): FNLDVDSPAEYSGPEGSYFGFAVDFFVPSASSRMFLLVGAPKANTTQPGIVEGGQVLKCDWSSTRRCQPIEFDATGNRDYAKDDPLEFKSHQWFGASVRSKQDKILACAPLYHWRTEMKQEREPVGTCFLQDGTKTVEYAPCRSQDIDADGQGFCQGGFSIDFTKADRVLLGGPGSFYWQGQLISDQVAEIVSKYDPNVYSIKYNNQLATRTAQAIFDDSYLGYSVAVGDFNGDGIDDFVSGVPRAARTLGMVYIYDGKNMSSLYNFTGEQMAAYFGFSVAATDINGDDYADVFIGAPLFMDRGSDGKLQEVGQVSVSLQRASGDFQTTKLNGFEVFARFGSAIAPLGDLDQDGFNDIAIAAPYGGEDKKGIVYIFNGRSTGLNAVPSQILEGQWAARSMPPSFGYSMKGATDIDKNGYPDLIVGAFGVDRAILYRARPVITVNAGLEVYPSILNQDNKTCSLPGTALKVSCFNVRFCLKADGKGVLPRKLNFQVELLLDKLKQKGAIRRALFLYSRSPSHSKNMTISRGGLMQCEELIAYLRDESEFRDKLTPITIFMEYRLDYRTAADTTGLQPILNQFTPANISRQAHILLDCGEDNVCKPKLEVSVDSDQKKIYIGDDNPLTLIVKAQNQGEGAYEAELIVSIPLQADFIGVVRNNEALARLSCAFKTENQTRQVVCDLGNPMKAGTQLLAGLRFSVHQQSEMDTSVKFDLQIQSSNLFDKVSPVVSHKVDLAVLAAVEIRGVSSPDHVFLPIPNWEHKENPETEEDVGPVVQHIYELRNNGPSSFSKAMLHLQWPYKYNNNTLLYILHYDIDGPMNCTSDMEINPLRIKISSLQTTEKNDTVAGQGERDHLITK
T1 sequence (P06756 891-1048 limits assumed): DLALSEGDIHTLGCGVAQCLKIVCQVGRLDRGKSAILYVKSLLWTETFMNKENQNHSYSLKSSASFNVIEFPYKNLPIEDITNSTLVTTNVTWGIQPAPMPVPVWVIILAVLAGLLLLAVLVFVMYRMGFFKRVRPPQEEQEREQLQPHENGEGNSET
T1 sequence (P05106 27-788): as the sequence (P05106 27-788) above

IC50 [2]	IC50 [3]	IC50 [4]	IC50 [5]	Structure (SMILES)	oral absorption [1]
–	–	–	–	O=C(NC[C@H](NS(=O)(=O)c1ccccc1)C(=O)O)c1ccc(N2CCC(Nc3ncccn3)CC2)c(Cl)c1 [Example 59, (2S)-Benzenesulfonylamino-3-[3-chloro-4-{4-(pyrimidin-2-ylamino)piperidin-1-yl}benzoylamino]-propionic acid]	had oral absorption
≤ 70 nM	≤ 1 nM	≤ 90 nM	≤ 1 nM	O=C(NC[C@H](NS(=O)(=O)c1ccccc1)C(=O)O)c1ccc(N2CCC(NC3=NCCCN3)CC2)c(Cl)c1 [Example 60, (2S)-Benzenesulfonylamino-3-[3-chloro-4-{4-(1,4,5,6-tetrahydropyrimidin-2-ylamino)piperidin-1-yl}-benzoylamino]propionic acid]	–
